Laboratory results as given in article PMC10051910 (Marine Drugs, 2023).

Test system: COMI cells
Type: cell-based, Human

With CC[C@@]1(O)C(=O)OCc2c1cc1n(c2=O)Cc2cc3ccccc3nc2-1 [camptothecin] the p53 level was “massively upregulate p53”.
